Data from patent publication US7294330B2, “β-glucuronidase inhibitors for use in deodorants and antiperspirants” (priority 2001, dated 2007).
Counter-ions that a name gives are not always drawn. Like-named read-outs stand apart in the source and are kept apart here.

Biological target: T1, β-glucuronidase (Sigma) (EC 3.2.1.31) from E. coli (Escherichia coli, UniProt P05804)
T1 construct: purchased Sigma G-7396
Test: biochemical
Settings: for remaining activity at 0.001 %: test concentration 0.001 %
Experimental: Investigation of the inhibitory action of the β-glucuronidase inhibitors (in vitro)
Since the skin-relevant β-glucuronidase was not available, a commercially available β-glucuronidase (Sigma) (EC 3.2.1.31) from E. coli served as the model enzyme for testing the inhibitory action of the inhibitors used according to the invention. The tests were carried out with the β-glucuronidase enzyme assay product no. G-7396 from Sigma in accordance with the instructions in the Sigma Quality Control Test Procedure datasheet.
For the evaluation, the phenolphthalein formed from the substrate phenolphthalein glucuronide by β-glucuronidase was determined spectrophotometrically (λ=540 nm).
The reaction solutions of 300 μl, which were temperature-controlled at a reaction temperature of 37° C., comprised 30 mM potassium phosphate buffer with 0.04% of albumin (pH 6.8), 0.5 mM phenolphthalein glucuronide (substrate) and a starting concentration of 40 U/ml (=12 U) of β-glucuronidase. The unit U of the enzyme activity was defined such that 1 U of β-glucuronidase hydrolyses 1.0 μmol of phenolphthalein glucuronide per minute at pH 6.8 and 37° C.
The reaction was started by addition of the enzyme and incubation was carried out for 30 min at 37° C. The reaction was then stopped with 3.5 times the volume of a 200 mM glycine solution of pH 10.4. In the photometric end point determination, the amount of phenolphthalein liberated was determined at the wavelength of λ=540 nm and at 37° C.
In batches with inhibitor, 0.2 ml of the appropriately concentrated reagents and 0.1 ml of the inhibitor, dissolved in water, were mixed. In each case a concentration series of the inhibitor was tested here. The absorption (A) here is a measure of the activity of the enzyme (ΔA). The activity of the enzyme in the absence of an inhibitor (ΔA1) was set at 100% as the reference. Under analogous conditions, the activities were determined in the presence of an inhibitor (ΔA2). The inhibitory action of the inhibitor was shown as the residual activity of the enzyme activity, calculated in accordance with the equation 100%−(ΔA2)/(ΔA1)%.

[1] = 0.5 h, concentration in the test 0.01 % (head of grid column 4, first sub-table), 30 min, 37° C., pH 6.8, read-out: Residual activity
[2] = 0.5 h, test concentration 0.01 %, 30 min, 37° C., pH 6.8, read-out: Residual activity
[3] = 0.5 h, test concentration 0.10 %, 30 min, 37° C., pH 6.8, read-out: Residual activity
[4] = 0.5 h, test concentration 1.00 %, 30 min, 37° C., pH 6.8, read-out: Residual activity
[5] = test concentration 0.10 %, 30 min, 37° C., pH 6.8
[6] = test concentration 0.50 %, 30 min, 37° C., pH 6.8
[7] = 0.5 h, pH 6.8, read-out: Residual activity
[8] = 0.5 h, 30 min, 37° C., pH 6.8, read-out: Residual activity
[9] = test concentration 0.01 %, 30 min, 37° C., pH 6.8
[10] = test concentration 1.00 %, 30 min, 37° C., pH 6.8
[11] = test concentration 0.08 %, 30 min, 37° C., pH 6.8
[12] = test concentration 2.00 %, 30 min, 37° C., pH 6.8

T1 sequence (P05804 whole entry): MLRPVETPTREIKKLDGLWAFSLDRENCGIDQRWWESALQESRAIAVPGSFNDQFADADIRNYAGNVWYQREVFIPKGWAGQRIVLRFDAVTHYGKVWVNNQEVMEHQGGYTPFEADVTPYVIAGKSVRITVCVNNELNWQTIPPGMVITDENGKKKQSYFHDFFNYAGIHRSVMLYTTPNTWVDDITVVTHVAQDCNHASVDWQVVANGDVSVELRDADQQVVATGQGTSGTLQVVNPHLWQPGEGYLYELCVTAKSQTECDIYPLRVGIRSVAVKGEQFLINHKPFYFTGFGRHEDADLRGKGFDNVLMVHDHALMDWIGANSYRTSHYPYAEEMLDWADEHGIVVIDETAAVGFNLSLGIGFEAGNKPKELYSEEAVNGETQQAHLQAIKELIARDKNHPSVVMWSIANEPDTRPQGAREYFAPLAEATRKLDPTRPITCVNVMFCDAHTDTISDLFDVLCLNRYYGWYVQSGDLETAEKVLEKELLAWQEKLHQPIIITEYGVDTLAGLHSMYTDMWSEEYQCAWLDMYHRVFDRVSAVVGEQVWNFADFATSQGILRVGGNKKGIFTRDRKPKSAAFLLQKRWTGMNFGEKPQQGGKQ

Q: Which results are given for `C=C(C)C1CCC(C)CC1O` (stereo not shown) [Coolact P, 5-methyl-2-(1-methylvinyl)cyclohexan-1-ol]?
A: remaining activity at 0.0005 % (0.5 h, concentration in the test 0.0005 % (head of grid column 3, first sub-table), 30 min, 37° C., pH 6.8, read-out: Residual activity): 184%; remaining activity at 0.01 % [1]: 38%

Q: With `O.O.O.O.O.[Cl][Cu][Cl]` [CuCl2 × 5H2O, CuCl2·5 H2O] as the compound, how does the Residual activity (test concentration 0.000005 %, 30 min, 37° C., pH 6.8) read?
A: 105%

Q: What about the Residual activity (test concentration 0.00005 %, 30 min, 37° C., pH 6.8) of the same compound?
A: 39%

Q: What about the Residual activity (test concentration 0.00025 %, 30 min, 37° C., pH 6.8) of the same compound?
A: 7%

Q: For `CC(O)(P(=O)(O)O)P(=O)(O)O` [Dequest 2016D, 1-Hydroxyethane-1,1-diphosphonic acid tetrasodium salt], which remaining activity at 8e-05 % (0.5 h, concentration in the test 0.00008 % (head of grid column 1, first sub-table), 30 min, 37° C., pH 6.8, read-out: Residual activity) is on record?
A: 99%

Q: What about the remaining activity at 0.0008 % (0.5 h, concentration in the test 0.0008 % (head of grid column 2, first sub-table), 30 min, 37° C., pH 6.8, read-out: Residual activity) of the same compound?
A: 95%

Q: What about the remaining activity at 0.01 % [1] of the same compound?
A: 52%

Q: Which remaining activity at 0.01 % [2] does the source give for `O=C(O)C(O)c1ccc(O)cc1` (stereo not shown) [Dermosoft HMA, p-Hydroxymandelic acid sodium salt] here?
A: 110%

Q: And the remaining activity at 0.1 % [3]?
A: 99%

Q: What about the remaining activity at 1 % [4] of the same compound?
A: 56%

Q: How did the Residual activity [5] turn out when `C=CCc1ccc(O[C@@H]2O[C@H](CO)[C@@H](O)[C@H](O)[C@H]2O)c(OC)c1` [Eugenyl Glucoside, 2-methoxy-4-(2-propenyl)phenyl β-D-glucoside] was run?
A: 53%

Q: And the Residual activity [6]?
A: 12%

Q: Which remaining activity at 0.01 % [7] does the source give for `NCC(=O)O` [Glycine, glycine] here?
A: 95%

Q: What about the remaining activity at 0.1 % [7] of the same compound?
A: 91%

Q: What about the remaining activity at 0.5 % [7] of the same compound?
A: 70%

Q: What about the remaining activity at 1 % [7] of the same compound?
A: 52%

Q: And the remaining activity at 2 % [7]?
A: 32%

Q: What does the source list for `CC(C)c1cccc(=O)c(O)c1` [Hinokitiol (DMSO), 2-hydroxy-4-isopropyl-2,4,6-cycloheptatrien-1-one]?
A: remaining activity at 0.001 % [8]: 112%; remaining activity at 0.01 % [2]: 156%; remaining activity at 0.1 % [3]: 30%; remaining activity at 1 % [4]: 2%

Q: What does the source list for `O=C([O-])C(O)C(O)C(O)C(O)C(O)CO.O=C([O-])C(O)C(O)C(O)C(O)C(O)CO.[Mg+2]` (stereo not shown) [Magnesium glucoheptonate, magnesium glucoheptonate]?
A: Residual activity [9]: 55%; Residual activity [5]: 50%

Q: How did the remaining activity at 0.001 % [8] turn out when `C[C@@H]1O[C@@H](O[C@H]2[C@H](Oc3cc(O)c4c(c3)O[C@H](c3ccc(O)cc3)CC4=O)O[C@H](CO)[C@@H](O)[C@@H]2O)[C@H](O)[C@H](O)[C@H]1O` [Naringin, naringenin 7-rhamnoglucoside] was run?
A: 103%

Q: And the remaining activity at 0.01 % [2]?
A: 94%

Q: And the remaining activity at 0.1 % [3]?
A: 47%

Q: `OCCc1ccccc1` [Phenylethyl alcohol, 2-phenylethyl alcohol] was tested. Which remaining activity at 0.01 % [2] did it give?
A: 121%

Q: And the remaining activity at 0.1 % [3]?
A: 227%

Q: What about the remaining activity at 1 % [4] of the same compound?
A: 49%

Q: How did the remaining activity at 0.01 % [2] turn out when `O=P(O)(O)O[C@H]1[C@H](OP(=O)(O)O)[C@@H](OP(=O)(O)O)[C@H](OP(=O)(O)O)[C@@H](OP(=O)(O)O)[C@H]1OP(=O)(O)O` [Phytic acid, myo-inositol-hexaphosphoric acid] was run?
A: 90%

Q: What about the remaining activity at 0.05 % (0.5 h, test concentration 0.05 %, 30 min, 37° C., pH 6.8, read-out: Residual activity) of the same compound?
A: 86%

Q: What about the remaining activity at 0.1 % [3] of the same compound?
A: 71%

Q: And the remaining activity at 0.38 % (0.5 h, test concentration 0.38 %, 30 min, 37° C., pH 6.8, read-out: Residual activity)?
A: 68%

Q: What about the remaining activity at 1 % [4] of the same compound?
A: 16%

Q: Which results are given for `CC(O)C(=O)[O-].[K+]` (stereo not shown) [Purasal P Hipure 60, Potassium lactate]?
A: Residual activity [9]: 96%; Residual activity [5]: 88%; Residual activity [10]: 52%

Q: What does the source list for `CC(=O)CCc1ccc(O[C@@H]2O[C@H](CO)[C@@H](O)[C@H](O)[C@H]2O)cc1` [Raspberry ketone glucoside, 4-(γ-ketobutyl)phenyl β-D-glucoside]?
A: Residual activity [6]: 125%; Residual activity [10]: 49%

Q: Which Residual activity (test concentration 0.0008 %, 30 min, 37° C., pH 6.8) does the source give for `O=C(/C=C/c1ccc(O)c(O)c1)O[C@H](Cc1ccc(O)c(O)c1)C(=O)O` [Rosemary acid, rosemary acid] here?
A: 48%

Q: And the Residual activity (test concentration 0.008 %, 30 min, 37° C., pH 6.8)?
A: 15%

Q: And the Residual activity [11]?
A: 19%

Q: What about the Residual activity (test concentration 8 · 10^−5 %, 30 min, 37° C., pH 6.8) of the same compound?
A: 86%

Q: How did the Residual activity [9] turn out when `O=C([O-])CN(CC(=O)[O-])CC(=O)[O-].[Na+].[Na+].[Na+]` [Trilon A, Nitrilotriacetic acid 3 Na, reference compound] was run?
A: 100%

Q: What about the Residual activity [5] of the same compound?
A: 90%

Q: What about the Residual activity [6] of the same compound?
A: 71%

Q: What about the Residual activity [10] of the same compound?
A: 59%

Q: And the Residual activity [12]?
A: 52%

Q: For `O=C([O-])CN(CCN(CC(=O)[O-])CC(=O)[O-])CC(=O)[O-].[Na+].[Na+].[Na+].[Na+]` [Trilon B, EDTA-4 Na, reference compound], which Residual activity [9] is on record?
A: 108%

Q: What about the Residual activity [5] of the same compound?
A: 86%

Q: What about the Residual activity [6] of the same compound?
A: 57%

Q: What about the Residual activity [10] of the same compound?
A: 51%

Q: And the Residual activity [12]?
A: 43%

Q: Which Residual activity [9] does the source give for `CC(C(=O)[O-])N(CC(=O)[O-])CC(=O)[O-].[Na+].[Na+].[Na+]` (stereo not shown) [Trilon M, Methylglycinediacetic acid trisodium salt] here?
A: 99%

Q: And the Residual activity [5]?
A: 91%

Q: What about the Residual activity [10] of the same compound?
A: 55%

Q: Which results are given for `O=C([O-])CC(O)(CC(=O)[O-])C(=O)[O-].[K+].[K+].[K+]` [Tripotassium citrate, tripotassium citrate]?
A: Residual activity [9]: 97%; Residual activity [5]: 86%; Residual activity [10]: 47%

Q: With `CC(O)C(=O)[O-].CC(O)C(=O)[O-].[Zn+2]` (stereo not shown) [Zinc lactate, zinc lactate] as the compound, how does the Residual activity (test concentration 0.005 %, 30 min, 37° C., pH 6.8) read?
A: 77%

Q: And the Residual activity (test concentration 0.05 %, 30 min, 37° C., pH 6.8)?
A: 55%

Q: What about the Residual activity [11] of the same compound?
A: 30%

Q: And the Residual activity [6]?
A: 3%

Q: Which Residual activity [9] does the source give for `O=C1CC[C@@H](C(=O)[O-])N1.O=C1CC[C@@H](C(=O)[O-])N1.[Zn+2]` [Zincidone] here?
A: 79%

Q: And the Residual activity [5]?
A: 8%

Q: What about the Residual activity [10] of the same compound?
A: 3%

Q: Which results are given for Copper gluconate [Givobio GCU]?
A: Residual activity [9]: 81%; Residual activity [5]: 50%

Q: Which results are given for zinc gluconate?
A: Residual activity [9]: 88%; Residual activity [5]: 54%; Residual activity (test concentration 0.25 %, 30 min, 37° C., pH 6.8): 3%; Residual activity [10]: 1%
